# Legend:
# Format in all cases: in vivo
# Settings in all cases: adjuvant 0.25 and ENSOL 28 0.375 kg/ha where added, scale 0-100
# ZEAMX (Zea mays, corn) = assay: Selective herbicidal activity post-emergence in the greenhouse (crop phytotoxicity)
# Procedure: (§1) The culture containers used were plastic pots containing loamy sand with approximately 3.0% of humus as substrate. The seeds of the test plants were sown separately for each species.
# (§2) For the post-emergence treatment, the test plants were grown to a plant height of from 3 to 15 cm, depending on the plant habit, and only then treated with the herbicidal mixture which had been suspended or emulsified in water. To this end, the test plants were either sown directly and grown in the same containers, or they were first grown separately as seedlings and transplanted into the test containers a few days prior to treatment.
# (§3) Depending on the species, the plants were kept at 10-25° C. or 20-35° C. The test period extended over 2 to 4 weeks. During this time, the plants were tended, and their response to the individual treatments was evaluated.
# (§4) Evaluation was carried out using a scale of from 0 to 100. 100 means no emergence of the plants, or complete destruction of at least the aerial parts, and 0 means no damage or normal course of growth.
# [1] = system: ECHCG (Echinochloa crus-galli, barnyardgrass); assay: Selective herbicidal activity post-emergence in the greenhouse
# Procedure: as §1, §2, §3, §4
# [2] = system: ABUTH (Abutilon theophrasti, velvetleaf); assay: as above
# Procedure: as §1, §2, §3, §4
# [3] = system: POLPE (Polygonum persicaria, lady's thumb); assay: as above
# Procedure: as §1, §2, §3, §4
# [4] = system: CHEAL (Chenopodium album, lambsquarters); assay: as above
# Procedure: as §1, §2, §3, §4
# [5] = system: SETVI (Setaria viridis, green foxtail); assay: as above
# Procedure: as §1, §2, §3, §4
# [6] = Table 1, EX. 1 0.0078 kg/ha a.s.
# [7] = Table 2, EX. 1 0.0625 kg/ha a.s.
# [8] = Table 8, EX. 1 0.0625 kg/ha a.s.
# [9] = Table 20, EX. 1 0.0078 kg/ha a.s.
# [10] = Table 5, EX. 1 0.0312 kg/ha a.s.
# [11] = Table 17, EX. 1 0.0078 kg/ha a.s.
# [12] = Table 19, EX. 1 0.0078 kg/ha a.s.
# [13] = Table 21, EX. 1 0.0078 kg/ha a.s.
# [14] = Table 11, EX. 1 0.0078 kg/ha a.s.
compound,measurement,setting,value
Cn1ncc(C(=O)c2ccc(S(C)(=O)=O)c(C3=NOCC3)c2Cl)c1O [EX. 1],Phytotoxicity ZEAMX,"ZEAMX (Zea mays, corn); [6]",0
same,Phytotoxicity ZEAMX,"ZEAMX (Zea mays, corn); [7]",0
same,Phytotoxicity ZEAMX,"ZEAMX (Zea mays, corn); [8]",0
same,Phytotoxicity ZEAMX,"ZEAMX (Zea mays, corn); [9]",0
same,Phytotoxicity ECHCG,"[1]; Table 3, EX. 1 0.0625 kg/ha a.s.",50
same,Phytotoxicity ECHCG,[1]; [10],030
same,Phytotoxicity ECHCG,[1]; [8],50
same,Phytotoxicity ECHCG,"[1]; Table 9, EX. 1 0.0625 kg/ha a.s.",50
same,Phytotoxicity ECHCG,"[1]; Table 15, EX. 1 0.0625 kg/ha a.s.",50
same,Phytotoxicity ABUTH,"[2]; Table 4, EX. 1 0.0156 kg/ha a.s.",20
same,Phytotoxicity ABUTH,[2]; [10],75
same,Phytotoxicity ABUTH,"[2]; Table 16, EX. 1 0.0156 kg/ha a.s.",20
same,Phytotoxicity POLPE,[3]; [11],20
same,Phytotoxicity POLPE,"[3]; Table 18, EX. 1 0.0078 kg/ha a.s.",70
same,Phytotoxicity POLPE,[3]; [12],70
same,Phytotoxicity POLPE,[3]; [13],70
same,Phytotoxicity CHEAL,[4]; [6],20
same,Phytotoxicity CHEAL,[4]; [7],50
same,Phytotoxicity CHEAL,"[4]; Table 6, EX. 1 0.0078 kg/ha a.s.",20
same,Phytotoxicity CHEAL,"[4]; Table 7, EX. 1 0.0156 kg/ha a.s.",20
same,Phytotoxicity CHEAL,"[4]; Table 10, EX. 1 0.0078 kg/ha a.s.",20
same,Phytotoxicity CHEAL,[4]; [14],20
same,Phytotoxicity CHEAL,"[4]; Table 12, EX. 1 0.0156 kg/ha a.s.",20
same,Phytotoxicity CHEAL,"[4]; Table 13, EX. 1 0.0156 kg/ha a.s.",20
same,Phytotoxicity CHEAL,"[4]; Table 14, EX. 1 0.0156 kg/ha a.s.",20
same,Phytotoxicity SETVI,[5]; [14],30
same,Phytotoxicity SETVI,[5]; [11],30
same,Phytotoxicity SETVI,[5]; [12],40
same,Phytotoxicity SETVI,[5]; [9],40
same,Phytotoxicity SETVI,[5]; [13],40

# Source: patent publication US6479437B1, “Herbicidal mixture containing a 3-heterocyclyl-substituted benzoyl derivative” (priority 1998, dated 2002)
